Experimental data reported in EP1695711A2, “Parenteral formulations comprising boronic acid species for selective thrombin inhibition” (TRIGEN LIMITED, priority 2002, dated 2004).
Counter-ions that a name gives are not always drawn. Like-named read-outs stand apart in the source and are kept apart here. Each block holds one compound with its values, some of them ahead of it.

Tests used:
[1] = i.v. pharmacokinetics in rats; conditions: rat
Protocol: (§1) Rats, body weight circa 250-300g were used. The animals were fasted only on the day of use for the iv stage.
(§2) Just before administration, 5 volumes of this solution is mixed with 3 volumes of 5% kollidon 17 8F.
(§3) Both compounds were given at a dose of 1.0mg/kg iv.
(§4) The compounds were dosed in a PEG/ethanol/kollidon formulation which was prepared immediately before, as described immediately under the heading "Dose": Stock 15.0mg/ml. This was dosed at 1.33ml/kg (equivalent to 30mg/kg).
(§5) A pre dose sample was taken followed by: 0, 2, 5, 10, 20, 30, 40, 60 and 90 minutes post dose.
(§6) This was obtained by centrifugation (3000 RPM for 10 min) and stored at -20°C prior to analysis.

[2] = Hydrolysis under HPLC assay conditions; format: physicochemical; conditions: acid conditions / sample preparation of an HPLC assay
platelet rich thrombus = test: Rabbit extracorporeal shunt model; format: in vivo, NZW rabbits; conditions: for THROMBUS WEIGHT AFTER 20 minute run: n=5
From the text: The technique describes an animal model in which a platelet rich thrombus is produced. The activity of TRI 50b and heparin are compared.
The carotid artery and jugular vein of anaesthetised rabbits were used to create an extracorporeal circuit containing a suspended foreign surface (silk thread). Thrombus deposition is initiated by creation of high sheer stress turbulent arterial blood flow, platelet activation, followed by coagulation in the presence of thrombogenic surfaces. Histopathological studies have shown that the thrombus is platelet rich.
NZW rabbits (males 2.5-3.5 kg) were used. The animals were allowed food and water up to the induction of anaesthesia.
Animals were premedicated with […] (Hypnorm) 0.15 ml total by intramuscular injection. General anaesthesia was induced with methohexitone (10 mg/ml) to effect, followed by endotracheal intubation. Anaesthesia was maintained with isoflurane (1-2.0 %) carried in oxygen /nitrous oxide.
The animals were placed in dorsal recumbency and the ventral cervical region prepared for surgery. The left carotid artery and right jugular vein were exposed. The artery was cannulated with a large Portex® catheter (yellow gauge), cut to a suitable length. The vein was cannulated with a Silastic® catheter. The shunt comprised of a 5 cm length of 'auto analyser' line (purple /white gauge). Joins to the shunt on the arterial side were made with intermediate size Silastic® tubing. The shunt was filled with saline before exposure to the circulation. The right femoral artery was cannulated for the measurement of blood pressure.
The central section of the shunt contained a thread 3 centimetres in length. This consisted of 000 gauge Gutterman sewing silk so as to give four strands with a single knot at the end. (The knot section was outside the shunt).
Blood flow velocity was determined by use of 'Doppler' probes (Crystal Biotech). A silastic probe was positioned over the carotid artery at the point of insertion of the arterial catheter. Flow was recorded on a chart recorder using heat sensitive paper.

washed platelets = test: Aggregation of washed platelets; format: cell-based
[3] = tested on: platelet procoagulant activity; test: Inhibition of platelet procoagulant activity; format: cell-based
From the text: Platelet pro-coagulant activity may be observed as the increase, in rate of activation of prothrombin by factor Xa in the presence of factor Va upon the addition of platelets pretreated with thrombin, caused by thrombin alone, collagen alone or a mixture of thrombin and collagen. This property is due to an increase in anionic phospholipid on the surface of the platelet with concomitant release of microvesicle from the surface. This is an essential physiological reaction and people whose platelets have reduced ability to generate procoagulant activity (Scott syndrome) show an increased tendency for bleeding.
Washed platelets were treated with either 1.15nM thrombin, 23µg/ml collagen or a mixture of both at the same concentration at 37°C. TRI 50b was added either for 1 minute prior to the addition of activator or immediately after the incubation with activator. Platelet procoagulant activity was determined as described previously (Goodwin C A et al, Biochem J. 1995 8, 308: 15-21).

[4] = Stability: HPLC-PDA assay before and after drying; format: physicochemical; conditions: for Amount: 5 mg in 5 mL
Protocol: An assay of TRI 50c and its sodium and lysine salts before and after drying.
For sample analysis, 5 mg of dried and non-dried material was weighed in a 5 mL volumetric flask and dissolved in 1 mL acetonitrile and filled up with demineralised water to 5 mL.
The quantitative evaluation was performed using an HPLC-PDA method.

thrombin time and APTT = format: in vivo, beagle dogs; conditions: dog
Protocol: Plasma was prepared by centrifugation and frozen at minus 20°C pending analysis.

[5] = rat, in vivo, iv, 1 mg/kg
Protocol: as §1, §2, §3, §4, §5, §6

[6] = Maximum aqueous solubility (shaken in water at 37°C, filtered, UV spectrum); format: physicochemical; conditions: read-out: Solubility when dissolved at 50mg/ml
thrombin = molecular target: T1, thrombin (Homo sapiens, UniProt P00734); test: Thrombin amidolytic assay (S2238, Vmax); format: biochemical; conditions: TRI 50b as external control; Fig. 1
T1 construct: purchased HTI, via Cambridge Bioscience
Protocol: Chromogenic substrate S2238 dissolved to 4mM (25mg + 10ml) in water. Diluted to 50uM with assay buffer for use in assay at 5µM. (S2238 is H-D-Phe-Pip-Arg-pNA).
Thrombin obtained from HTI, via Cambridge Bioscience, and aliquoted at 1mg/ml with assay buffer. Dilute to 100ng/ml with assay buffer and then a further 1 in 3 for use in the assay.
• 110µl assay buffer • 50ul 5µg/ml thrombin • 20µl vehicle or compound solution • 5 min at 37°C • 20µl 50µM S2238

[7] = dry (desiccator over phosphorus pentoxide for 1 week)
[8] = dry (desiccator over phosphorus pentoxide for 1 week), listed as TRI 50c Na salt, monosodium salt
[9] = non-dried, listed as TRI 50c Na salt, monosodium salt

- Area under curve ([1]; 1.0mg/kg iv, n=3): 1.68
- Max Plasma Concentration (observed) ([1]; 1.0mg/kg iv, n=3): 2.24
- Vd ([1]; plasma, iv, 1 mg/kg): 0.5 L/kg
- hydrolysis to the acid form (TRI 50c) [2]: short half life
- bleeding (platelet rich thrombus; 3mg/kg to 10mg/kg iv): without bleeding
- IC50 ([3]; agonist Collagen (23µg/ml), TRI 50b added 1 minute prior to activator, read-out: I C50 plus pre-incubation): 0.2 µM
- IC50 ([3]; agonist Collagen (23µg/ml), TRI 50b added after incubation with activator, read-out: I C50 without incubation): 0.3 µM
- IC50 ([3]; agonist Thrombin/Collagen, TRI 50b added 1 minute prior to activator, read-out: I C50 plus pre-incubation): 0.003 µM
- IC50 ([3]; agonist Thrombin/Collagen, TRI 50b added after incubation with activator, read-out: I C50 without incubation): 0.08 µM
SMILES: COCCC[C@H](NC(=O)[C@@H]1CCCN1C(=O)[C@@H](Cc1ccccc1)NC(=O)OCc1ccccc1)B1OC(C)(C)C(C)(C)O1 [TRI 50b, Cbz-(R)-Phe-Pro-BoroMpg-OPinacol]
- THROMBUS WEIGHT AFTER 20 minute run (platelet rich thrombus; 3.0mg/kg iv): 15.3 ±2.2 mg(n=5)
- THROMBUS WEIGHT AFTER 20 minute run (platelet rich thrombus; 10mg/kg iv): 9.78 ±1.9 mg(n=5)
- effect on ADP, collagen or epinephrine induced aggregation (washed platelets): does not have an effect

SMILES: COCCC[C@H](NC(=O)[C@@H]1CCCN1C(=O)[C@@H](Cc1ccccc1)NC(=O)OCc1ccccc1)B(O)O [TRI 50c Lys salt]
- Purity (% area) [4, 7]: 90.17 % area
- Amount [4, 7]: 813.3 µg/mL
- Purity (% area) ([4]; non-dried): 92.25 % area
- Amount ([4]; non-dried): 809.8 µg/mL

SMILES: COCCC[C@H](NC(=O)[C@@H]1CCCN1C(=O)[C@@H](Cc1ccccc1)NC(=O)OCc1ccccc1)B(O)O [TRI 50c sodium salt, Cbz-(R)-Phe-(S)-Pro-(R)-Mpg-B(OH)2 monosodium salt]
- thrombin time (thrombin time and APTT; 1.0 mg/kg i.v., 2 minutes post dose, base line 14.3 seconds, listed as sodium salt, monosodium salt, 1 mg/kg): 154.4 s
- thrombin time (thrombin time and APTT; 1.0 mg/kg i.v., 2 minutes post dose, base line 14.3 seconds, monosodium salt, 1 mg/kg): 154 s
- thrombin time (thrombin time and APTT; 1.0 mg/kg i.v., one hour post dose): 26 s
- elevation in the APTT (thrombin time and APTT; 1.0 mg/kg i.v., post dose): 1.3 times
- APTT (thrombin time and APTT; 1.0 mg/kg i.v., post dose, base line 19 seconds): 25 s
- Thrombin clotting time elevation above base line (thrombin time and APTT; 1.0 mg/kg i.v., two minutes following dosing): 10.8 times
- tolerability / adverse events (thrombin time and APTT; in vivo, iv, 1 mg/kg): tolerated well with no adverse events
- Amount [4, 8]: 1024 µg/mL
- Purity (% area) [4, 8]: 98.81 % area
- Amount [4, 9]: 1005.8 µg/mL
- Purity (% area) [4, 9]: 98.61 % area

SMILES: COCCC[C@H](NC(=O)[C@@H]1CCCN1C(=O)[C@@H](Cc1ccccc1)NC(=O)OCc1ccccc1)B(O)O [TRI 50c, Cbz-(R)-Phe-(S)-Pro-(R)-boroMpg-OH]
- Purity (% area) [4, 7]: 82.00 % area
- Amount [4, 7]: 1000.0 µg/mL
- Area under curve [5]: 1.48
- Max Plasma Concentration (observed) [5]: 2.35
- Volume Distribution [5]: 0.59 L/kg

SMILES: COCCC[C@H](NC(=O)[C@@H]1CCCN1C(=O)[C@@H](Cc1ccccc1)NC(=O)OCc1ccccc1)B(O)O [lithium salt]
- solubility [6]: 43 mg/mL

SMILES: COCCC[C@H](NC(=O)[C@@H]1CCCN1C(=O)[C@@H](Cc1ccccc1)NC(=O)OCc1ccccc1)B(O)O [magnesium salt of TRI 50c]
- activity in thrombin amidolytic assay (thrombin): the same activity as TRI 50b
